Columns and labels:
DIO mice = assay: Oral glucose tolerance test (OGTT) in diet-induced obese (DIO) mice; format: in vivo; conditions: fasted DIO mice, compound by gavage 30 min before oral glucose 2 g/kg, glucose measured 0-90 min, FIG. 2A/2B
Method: DIO mice were male C56BL/6J-Narl mice at age of 13 to 15 weeks that have been fed with Western Diet (TestDiet 5342) for 6 to 8 weeks. DIO mice were fasted for five hours and then gavaged with a compound described herein (e.g., compounds RJ21 and RJ27) at indicated dose or with vehicle alone. Thirty minutes later, the mice were gavaged with glucose (2 g/kg body weight). The level of blood glucose was measured right before and every 30 minutes after the glucose challenge up to 90 minutes. The data are expressed as mean±SD and analyzed by Student's t-test using Prism (GraphPad).
The effect of the compounds to the homeostasis of blood glucose using oral glucose tolerance test (OGTT) was examined in this example. Fasted DIO mice were gavaged with RJ21, RJ27, or vehicle alone, and received an oral glucose challenge (2 g/kg body weight) 30 minutes later. The level of blood glucose was measured right before (0 minute) and every 30 minutes after the glucose gavage.

GLP-1 receptor = biological target: T1, GLP-1 receptor (Rattus norvegicus, UniProt P32301); assay: GLP-1 dependent cAMP production from RIN-m5F cells (ELISA); format: cell-based; conditions: 0.001 mg/ml compound
T1 construct: endogenous in cells; host or cells: RIN-m5F cells
T1 sequence (P32301 22-463): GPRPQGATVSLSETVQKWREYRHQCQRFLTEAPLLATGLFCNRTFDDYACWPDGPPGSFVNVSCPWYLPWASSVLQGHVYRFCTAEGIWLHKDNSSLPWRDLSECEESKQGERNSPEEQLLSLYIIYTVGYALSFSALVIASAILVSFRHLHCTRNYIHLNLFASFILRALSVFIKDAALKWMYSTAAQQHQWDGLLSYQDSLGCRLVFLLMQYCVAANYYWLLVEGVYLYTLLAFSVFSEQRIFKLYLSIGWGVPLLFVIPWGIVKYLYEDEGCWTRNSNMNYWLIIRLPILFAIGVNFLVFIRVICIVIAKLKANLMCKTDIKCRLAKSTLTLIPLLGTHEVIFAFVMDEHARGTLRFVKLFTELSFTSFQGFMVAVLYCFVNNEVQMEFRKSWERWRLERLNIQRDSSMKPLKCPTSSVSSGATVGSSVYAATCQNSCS
Method: The cells were cultured in 37° C. with 5% CO2 for 42 hours prior to cAMP production experiment.
The stimulation process was terminated by replacing the stimulation medium with 0.05 ml per well of ice-cold absolute ethanol, and further incubated at −20° C. for 20 min. The cellular cAMP was extracted with 0.085 ml PBS after the ethanol in the wells were evaporated in a vacuum desiccator for 35 min.
The total cAMP from each well was determined by ELISA method according the procedure recommended by the supplier.

Compound | blood glucose level versus vehicle-treated mice (DIO mice) | potentiation of the effect of GLP-1 on cAMP production (factor) (GLP-1 receptor; 30 nM GLP-1, RIN-m5F cells, 15 min) | cAMP generation by the compound by itself (agonist effect) (GLP-1 receptor; RIN-m5F cells, little cAMP response at 3 nM GLP-1)
COC(=O)C1=CC[C@H]2[C@@](C=O)(CCC3C(C)(C)CCC[C@@]32C)[C@H](O)C1 (stereo partly shown) [RJ27] | significantly lower |  | 
galanal B [RJ21] | significantly lower | 2 | did not affect

Reference: patent US9193665B2, “Synthesis of galanal compounds and analogues thereof” (Academia Sinica, priority 2013, dated 2015)
